Assay results as given in ChEMBL document CHEMBL1201862, “PubChem BioAssay data set” (2004).
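Results reflect a 48-hour exposure of cells in 96-well plates to compound at five concentrations. Here, GI50 denotes the concentration required for 50% inhibition of growth.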 Activity calls are given as the source filed them. No stated cut-off is given here; in the data, active = GI50 up to about 1.1 µM and inactive = higher.

Key:
Experiment in all cases: inhibition of tumour cell growth, NCI panel, 48 h
SF-268 = system: SF-268
HT-29 = system: HT-29
UACC-62 = system: UACC-62
EKVX = system: EKVX
HCC 2998 = system: HCC 2998
CCRF-CEM = system: CCRF-CEM
SK-MEL-28 = system: SK-MEL-28
CAKI-1 = system: CAKI-1
U-251 = system: U-251
Malme-3M = system: Malme-3M
NCI-H460 = system: NCI-H460
SF-295 = system: SF-295
TK-10 = system: TK-10
ACHN = system: ACHN
NCI-H23 = system: NCI-H23
MCF7 = system: MCF7
MDA-MB-435 = system: MDA-MB-435
DU-145 = system: DU-145
Hs-578T = system: Hs-578T

| SMILES | GI50 (SF-268) | GI50 (HT-29) | GI50 (UACC-62) | GI50 (EKVX) | GI50 (HCC 2998) | GI50 (CCRF-CEM) | GI50 (SK-MEL-28) | GI50 (CAKI-1) | GI50 (U-251) | GI50 (Malme-3M) | GI50 (NCI-H460) | GI50 (SF-295) | GI50 (TK-10) | GI50 (ACHN) | GI50 (NCI-H23) | GI50 (MCF7) | GI50 (MDA-MB-435) | GI50 (DU-145) | GI50 (Hs-578T) |
| --- | --- | --- | --- | --- | --- | --- | --- | --- | --- | --- | --- | --- | --- | --- | --- | --- | --- | --- | --- |
| Cn1cc(C(=O)NCCC(=N)N)cc1NC(=O)C1=[N+](C)C=C(NC(=O)c2cccc(C(=O)NC3=CC(C(=O)Nc4cc(C(=O)NCCC(=N)N)cn4C)=[N+](C)C3)c2)C1 | > 100 µM (inactive) | > 100 µM (inactive) | 37.8 µM (inactive) | > 100 µM (inactive) | 99.8 µM (inactive) | > 100 µM (inactive) | > 100 µM (inactive) | > 100 µM (inactive) | > 100 µM (inactive) | 24.8 µM (inactive) | > 100 µM (inactive) | > 100 µM (inactive) | > 100 µM (inactive) | > 100 µM (inactive) | > 100 µM (inactive) | – | – | – | – |
| Cc1cc(NCCCCCCCNc2cc(C)nc3cc(N)ccc23)c2ccc(N)cc2n1 | 60.3 µM (inactive) | 34 µM (inactive) | 35.5 µM (inactive) | 55.6 µM (inactive) | 46.2 µM (inactive) | 15.6 µM (inactive) | 32.7 µM (inactive) | > 100 µM (inactive) | 28.1 µM (inactive) | 36 µM (inactive) | 27.2 µM (inactive) | 10.3 µM (inactive) | > 100 µM (inactive) | > 100 µM (inactive) | 30.8 µM (inactive) | – | – | – | – |
| CC(=O)OC1(C#N)CC2OC1C1C2N1C(=O)c1ccccc1 (stereo not drawn) | > 100 µM (inactive) | – | > 100 µM (inactive) | > 100 µM (inactive) | > 100 µM (inactive) | > 100 µM (inactive) | > 100 µM (inactive) | > 100 µM (inactive) | > 100 µM (inactive) | > 100 µM (inactive) | > 100 µM (inactive) | – | > 100 µM (inactive) | > 100 µM (inactive) | > 100 µM (inactive) | – | – | – | – |
| c1ccc2c(c1)n1nnnc1c1nnnn21 | 85.1 µM (inactive) | > 100 µM (inactive) | > 100 µM (inactive) | > 100 µM (inactive) | > 100 µM (inactive) | > 100 µM (inactive) | > 100 µM (inactive) | > 100 µM (inactive) | > 100 µM (inactive) | > 100 µM (inactive) | > 100 µM (inactive) | 77.8 µM (inactive) | > 100 µM (inactive) | > 100 µM (inactive) | > 100 µM (inactive) | – | – | – | – |
| COc1cc2c(oc(=O)c3c4occc4cc(OC)c23)c2cccc(OCc3ccccc3)c12 | > 100 µM (inactive) | > 100 µM (inactive) | 86.1 µM (inactive) | > 100 µM (inactive) | > 100 µM (inactive) | > 100 µM (inactive) | 49.4 µM (inactive) | > 100 µM (inactive) | > 100 µM (inactive) | 35.6 µM (inactive) | 44.9 µM (inactive) | 88.9 µM (inactive) | > 100 µM (inactive) | > 100 µM (inactive) | > 100 µM (inactive) | – | – | – | – |
| COC(=O)c1ccc(N/C=C(/C#N)c2ccsc2)cc1 | 10.9 µM (inactive) | 11.1 µM (inactive) | 20.5 µM (inactive) | 15.9 µM (inactive) | 18.4 µM (inactive) | > 100 µM (inactive) | 15.6 µM (inactive) | 15.1 µM (inactive) | 6.92 µM (inactive) | 16.8 µM (inactive) | 32.6 µM (inactive) | 7.18 µM (inactive) | 16.8 µM (inactive) | 5.97 µM (inactive) | 10.7 µM (inactive) | – | – | – | – |
| O=C1NC(=S)NC(=O)C1=Cc1cc2c(cc1[N+](=O)[O-])OCO2 | > 100 µM (inactive) | – | > 100 µM (inactive) | > 100 µM (inactive) | > 100 µM (inactive) | 55.3 µM (inactive) | > 100 µM (inactive) | 94.4 µM (inactive) | > 100 µM (inactive) | > 100 µM (inactive) | > 100 µM (inactive) | – | > 100 µM (inactive) | > 100 µM (inactive) | – | – | – | – | – |
| Cc1ccc(C)c(NC(=O)C(=O)C2C(=O)N(c3ccccc3)N=C2N)c1 (stereo not drawn) | > 100 µM (inactive) | > 100 µM (inactive) | > 100 µM (inactive) | > 100 µM (inactive) | > 100 µM (inactive) | > 100 µM (inactive) | > 100 µM (inactive) | > 100 µM (inactive) | > 100 µM (inactive) | > 100 µM (inactive) | > 100 µM (inactive) | > 100 µM (inactive) | > 100 µM (inactive) | > 100 µM (inactive) | > 100 µM (inactive) | – | – | – | – |
| Cc1cccc(Nc2cn(CCOc3ccccc3)c(=O)[nH]c2=O)c1 | 30 µM (inactive) | – | 46.6 µM (inactive) | 11.3 µM (inactive) | 24.8 µM (inactive) | 52.6 µM (inactive) | 29.5 µM (inactive) | 41.2 µM (inactive) | 33.7 µM (inactive) | – | 32.7 µM (inactive) | 49.9 µM (inactive) | – | 33.2 µM (inactive) | 31 µM (inactive) | 35.9 µM (inactive) | 29.5 µM (inactive) | 28.5 µM (inactive) | 6.41 µM (inactive) |
| CC(C)=C=CP(=O)(O)c1ccccc1 | > 100 µM (inactive) | > 100 µM (inactive) | > 100 µM (inactive) | > 100 µM (inactive) | > 100 µM (inactive) | – | > 100 µM (inactive) | > 100 µM (inactive) | > 100 µM (inactive) | > 100 µM (inactive) | > 100 µM (inactive) | > 100 µM (inactive) | > 100 µM (inactive) | > 100 µM (inactive) | > 100 µM (inactive) | > 100 µM (inactive) | > 100 µM (inactive) | > 100 µM (inactive) | > 100 µM (inactive) |
| CC(NC(=O)Cc1ccc(OP(=O)(OCc2ccc([N+](=O)[O-])o2)N(C)CCCCCl)cc1)c1ccc(OCC2CCCCC2)c(C(N)=O)c1 (stereo not drawn) | 2.22 µM (inactive) | 1.39 µM (inactive) | 1.74 µM (inactive) | – | 1.35 µM (inactive) | 0.906 µM (active) | 1.65 µM (inactive) | 2.91 µM (inactive) | 2.14 µM (inactive) | 1.77 µM (inactive) | 2.79 µM (inactive) | 2.24 µM (inactive) | 3.22 µM (inactive) | 3.56 µM (inactive) | 2.08 µM (inactive) | 2.52 µM (inactive) | 1.89 µM (inactive) | 2.8 µM (inactive) | 1.92 µM (inactive) |
| CC(=O)/C=C1/c2ccccc2N(C(C)=O)C1O (stereo not drawn) | – | > 100 µM (inactive) | > 100 µM (inactive) | > 100 µM (inactive) | > 100 µM (inactive) | > 100 µM (inactive) | > 100 µM (inactive) | > 100 µM (inactive) | > 100 µM (inactive) | – | > 100 µM (inactive) | > 100 µM (inactive) | – | > 100 µM (inactive) | > 100 µM (inactive) | – | – | – | – |
| O=C(NC/C=C/Br)NC1CCNc2ccccc21 (stereo not drawn) | 77.4 µM (inactive) | 15.7 µM (inactive) | 31.3 µM (inactive) | 47.6 µM (inactive) | 27.9 µM (inactive) | 36.4 µM (inactive) | 33.7 µM (inactive) | 42.1 µM (inactive) | 73.8 µM (inactive) | 31.6 µM (inactive) | 34.9 µM (inactive) | 45.4 µM (inactive) | 42.3 µM (inactive) | 58.3 µM (inactive) | 16.8 µM (inactive) | 19.3 µM (inactive) | 31.6 µM (inactive) | 52.1 µM (inactive) | – |
| CC(C)c1cccc(C(C)C)c1NC(=O)C(=O)CC(=O)CC(c1ccccc1)c1c(O)oc2ccccc2c1=O (stereo not drawn) | > 100 µM (inactive) | > 100 µM (inactive) | > 100 µM (inactive) | > 100 µM (inactive) | > 100 µM (inactive) | > 100 µM (inactive) | > 100 µM (inactive) | > 100 µM (inactive) | – | > 100 µM (inactive) | > 100 µM (inactive) | > 100 µM (inactive) | > 100 µM (inactive) | > 100 µM (inactive) | > 100 µM (inactive) | – | – | – | – |
| O=c1nc2occc2cn1C1CC(O)C(CO)O1 (stereo not drawn) | > 100 µM (inactive) | > 100 µM (inactive) | > 100 µM (inactive) | > 100 µM (inactive) | > 100 µM (inactive) | > 100 µM (inactive) | > 100 µM (inactive) | > 100 µM (inactive) | > 100 µM (inactive) | > 100 µM (inactive) | > 100 µM (inactive) | > 100 µM (inactive) | > 100 µM (inactive) | > 100 µM (inactive) | > 100 µM (inactive) | – | – | – | – |
| COc1ccc(C2=C(Cl)c3cc(OC)c(OC)cc3C2OC)cc1OC (stereo not drawn) | > 100 µM (inactive) | > 100 µM (inactive) | > 100 µM (inactive) | > 100 µM (inactive) | > 100 µM (inactive) | 50.2 µM (inactive) | > 100 µM (inactive) | > 100 µM (inactive) | – | > 100 µM (inactive) | > 100 µM (inactive) | > 100 µM (inactive) | > 100 µM (inactive) | > 100 µM (inactive) | > 100 µM (inactive) | – | – | – | – |
| Cc1[nH]c2cc([N+](=O)[O-])ccc2c1[N+](=O)[O-] | 22.1 µM (inactive) | 27.9 µM (inactive) | – | 11.7 µM (inactive) | 15 µM (inactive) | 16.8 µM (inactive) | 21 µM (inactive) | 19 µM (inactive) | 19.9 µM (inactive) | 13.9 µM (inactive) | 20.6 µM (inactive) | 17.3 µM (inactive) | 29.7 µM (inactive) | 15.5 µM (inactive) | 17.7 µM (inactive) | – | – | – | – |
| CCCCN[C@H]1C2C3CC4C5CC(C42)C1(C)C53 (stereo partly drawn) | > 100 µM (inactive) | > 100 µM (inactive) | > 100 µM (inactive) | > 100 µM (inactive) | > 100 µM (inactive) | > 100 µM (inactive) | > 100 µM (inactive) | > 100 µM (inactive) | > 100 µM (inactive) | > 100 µM (inactive) | > 100 µM (inactive) | > 100 µM (inactive) | > 100 µM (inactive) | > 100 µM (inactive) | – | – | – | – | – |
